Results from patent publication US20210395313A1, “PEPTIDE PAC1 ANTAGONISTS” (AMGEN INC., priority 2017, published 2021).
Where a SMILES comes first, the peptide text is derived from it. Bridges are numbered along the chain shown (N, C = ends). Where no end group is shown, it is not given here.

Columns and labels:
human PAC1 receptor = molecular target: T1, human PAC1 receptor (Homo sapiens, UniProt P41586); experiment: LANCE Ultra cAMP accumulation antagonist assay in SHSY-5Y cells; format: cell-based;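 also: inhibition of cAMP accumulation evoked by PAC1 agonist at its EC80 in SHSY-5Y cells endogenously expressing receptor, 30 min preincubation then 15 min agonist, TR-FRET readout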
T1 construct: SHSY-5Y (human neuroblastoma cell line) and RG-2 (rat glioma cell line) cells endogenously express human and rat PAC1 receptors, respectively; endogenous in cells; host or cells: SHSY-5Y human neuroblastoma cells
T1 sequence (P41586 21-468): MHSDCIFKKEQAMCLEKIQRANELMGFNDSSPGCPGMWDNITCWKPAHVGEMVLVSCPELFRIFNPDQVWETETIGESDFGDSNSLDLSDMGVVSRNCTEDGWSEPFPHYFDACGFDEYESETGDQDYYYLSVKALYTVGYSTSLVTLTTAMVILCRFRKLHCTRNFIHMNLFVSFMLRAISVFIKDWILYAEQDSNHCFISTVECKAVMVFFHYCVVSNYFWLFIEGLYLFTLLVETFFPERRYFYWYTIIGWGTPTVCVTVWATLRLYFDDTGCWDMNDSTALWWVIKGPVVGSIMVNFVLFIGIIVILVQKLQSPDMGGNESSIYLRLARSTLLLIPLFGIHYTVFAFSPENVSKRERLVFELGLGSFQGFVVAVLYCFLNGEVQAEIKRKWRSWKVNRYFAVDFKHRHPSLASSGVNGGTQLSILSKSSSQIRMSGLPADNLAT

rat PAC1 receptor = molecular target: T2, rat PAC1 receptor (Rattus norvegicus, UniProt P32215); experiment: LANCE Ultra cAMP accumulation antagonist assay in RG-2 cells; format: cell-based;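 also: RG-2 rat glioma cells endogenously expressing PAC1, test peptide preincubated 30 min, then PAC1 agonist added at its EC80 for 15 min, cAMP accumulation read by LANCE Ultra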
T2 construct: SHSY-5Y (human neuroblastoma cell line) and RG-2 (rat glioma cell line) cells endogenously express human and rat PAC1 receptors, respectively; endogenous in cells; host or cells: RG-2 rat glioma cells
T2 sequence (P32215 20-523): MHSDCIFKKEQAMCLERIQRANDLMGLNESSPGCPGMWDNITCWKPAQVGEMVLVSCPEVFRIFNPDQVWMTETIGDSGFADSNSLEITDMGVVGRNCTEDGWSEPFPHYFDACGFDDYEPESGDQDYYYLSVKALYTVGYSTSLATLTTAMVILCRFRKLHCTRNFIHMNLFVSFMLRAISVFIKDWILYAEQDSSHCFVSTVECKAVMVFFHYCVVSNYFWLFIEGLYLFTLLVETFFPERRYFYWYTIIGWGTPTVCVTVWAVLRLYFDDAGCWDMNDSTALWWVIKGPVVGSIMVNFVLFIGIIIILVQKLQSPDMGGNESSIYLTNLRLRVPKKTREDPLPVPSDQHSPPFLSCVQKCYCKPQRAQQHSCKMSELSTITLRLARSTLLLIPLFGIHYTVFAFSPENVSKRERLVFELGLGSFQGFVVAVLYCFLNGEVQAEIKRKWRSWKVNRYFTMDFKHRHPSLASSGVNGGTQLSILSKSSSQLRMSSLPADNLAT

CC[C@H](C)[C@H](NC(=O)[C@H](C)NC(=O)[C@H](CCCCN)NC(=O)[C@H](CCCNC(=N)N)NC(=O)[C@H](Cc1ccccc1)NC(=O)[C@H](CCC(N)=O)NC(=O)[C@@H]1CSSC[C@H](N)C(=O)N[C@@H](CC(=O)O)C(=O)N[C@@H](C)C(=O)N[C@@H]([C@@H](C)O)C(=O)N1)C(=O)N[C@@H](CC(=O)O)C(=O)N[C@@H](CC(=O)O)C(=O)N[C@H]1CSSC[C@@H](C(=O)N[C@@H](CCSC)C(=O)N[C@@H](CCCCN)C(=O)N[C@@H](CCC(N)=O)C(=O)N[C@@H](CCCCN)C(=O)N[C@@H](CCCCN)C(=O)N[C@@H](CCCCN)C(=O)N[C@@H](CCC(=O)O)C(=O)N[C@@H](Cc2c[nH]c3ccccc23)C(=O)N[C@@H](CCCCN)C(=O)N[C@@H](C)C(=O)NCC(N)=O)NC(=O)[C@H](C)NC(=O)[C@H](CCCCN)NC(=O)[C@H](Cc2ccccc2)NC(=O)[C@H](CO)NC(=O)[C@H](CO)NC(=O)[C@H](Cc2c[nH]cn2)NC(=O)[C@H](Cc2ccc(O)cc2)NC(=O)[C@H](C)NC(=O)[C@H](CCC(N)=O)NC(=O)[C@H](CCCNC(=N)N)NC(=O)[C@H](C)NC1=O [compound 20] (H-CDATCQFRKAIDDCARQAYHSSFKACMKQKKKEWKAG-NH2; disulfide 1-5, 14-26)
IC50 (human PAC1 receptor): 0.01 to 1 nM | IC50 (rat PAC1 receptor): 0.01 to 1 nM

CC[C@H](C)[C@H](NC(=O)[C@H](C)NC(=O)[C@H](CCCCN)NC(=O)[C@H](CCCNC(=N)N)NC(=O)[C@H](Cc1ccccc1)NC(=O)[C@H](CCC(N)=O)NC(=O)[C@@H]1CSSC[C@H](NC(C)=O)C(=O)N[C@@H](CC(=O)O)C(=O)N[C@@H](C)C(=O)N[C@@H]([C@@H](C)O)C(=O)N1)C(=O)N[C@@H](CC(=O)O)C(=O)N[C@@H](CC(=O)O)C(=O)N[C@H]1CSSC[C@@H](C(=O)N[C@@H](CCSC)C(=O)N[C@@H](CCCCN)C(=O)N[C@@H](CCC(N)=O)C(=O)N[C@@H](CCCCN)C(=O)N[C@@H](CCCCN)C(=O)N[C@@H](CCCCN)C(=O)N[C@@H](CCC(=O)O)C(=O)N[C@@H](Cc2ccccc2)C(=O)N[C@@H](CCCCN)C(=O)N[C@@H](C)C(=O)NCC(N)=O)NC(=O)C(C)(C)NC(=O)[C@H](CCCCN)NC(=O)[C@H](Cc2ccccc2)NC(=O)[C@H](C(C)C)NC(=O)[C@H](CO)NC(=O)CNC(=O)[C@@H]2CCCN2C(=O)[C@H](C(C)C)NC(=O)[C@H](CC(N)=O)NC(=O)[C@H](CO)NC(=O)[C@H](Cc2c[nH]cn2)NC(=O)[C@H](Cc2c[nH]cn2)NC(=O)[C@H](C)NC(=O)[C@H](CCC(N)=O)NC(=O)[C@H](CCCCN)NC(=O)[C@H](CCC(N)=O)NC1=O [SEQ ID NO 253]
IC50 (human PAC1 receptor): 0.01 to 1 nM | IC50 (rat PAC1 receptor): 0.01 to 1 nM

CDATCQFRKAIDDCYWQAIHANVPGSVWKACMKFRFNVWKAG-NH2 (disulfide 1-5, 14-31) [compound 54]
IC50 (human PAC1 receptor): 1 to 100 nM | IC50 (rat PAC1 receptor): 0.01 to 1 nM

CC[C@H](C)[C@H](NC(=O)[C@H](C)NC(=O)[C@H](CCCCN)NC(=O)[C@H](CCCNC(=N)N)NC(=O)[C@H](Cc1ccccc1)NC(=O)[C@H](CCC(N)=O)NC(=O)[C@@H]1CSSC[C@H](NC(=O)CN)C(=O)N[C@@H](CC(=O)O)C(=O)N[C@@H](C)C(=O)N[C@@H]([C@@H](C)O)C(=O)N1)C(=O)N[C@@H](CC(=O)O)C(=O)N[C@@H](CC(=O)O)C(=O)N[C@H]1CSSC[C@@H](C(=O)N[C@@H](CCSC)C(=O)N[C@@H](CCCCN)C(=O)N[C@@H](CCC(N)=O)C(=O)N[C@@H](CCCCN)C(=O)N[C@@H](CCCCN)C(=O)N[C@@H](CCCCN)C(=O)N[C@@H](CCC(=O)O)C(=O)N[C@@H](Cc2c[nH]c3ccccc23)C(=O)N[C@@H](CCCCN)C(=O)N[C@@H](C)C(=O)NCC(=O)N[C@@H](Cc2c[nH]cn2)C(=O)O)NC(=O)[C@H](C)NC(=O)[C@H](CCCCN)NC(=O)[C@H](Cc2ccccc2)NC(=O)[C@H](C(C)C)NC(=O)[C@H](CO)NC(=O)[C@H](CO)NC(=O)[C@H](Cc2c[nH]cn2)NC(=O)[C@H](Cc2c[nH]cn2)NC(=O)[C@H](C)NC(=O)[C@H](CCC(N)=O)NC(=O)[C@H](CCCNC(=N)N)NC(=O)[C@H](C(C)C)NC1=O [compound 15] (H-GCDATCQFRKAIDDCVRQAHHSSVFKACMKQKKKEWKAGH-OH; disulfide 2-6, 15-28)
IC50 (human PAC1 receptor): 0.01 to 1 nM | IC50 (rat PAC1 receptor): 0.01 to 1 nM

CDATCQFRKAIDDCARQAHHANVPGSVFKACMKQKKKEWKAGH (disulfide 1-5, 14-31) [compound 8]
IC50 (human PAC1 receptor): 0.01 to 1 nM | IC50 (rat PAC1 receptor): 0.01 to 1 nM
